Reference: patent US9796753B2, “N-substituted indenoisoquinolines and syntheses thereof” (Purdue Research Foundation, priority 2005, dated 2017)
Where two headings read alike, the source gives them in different places.

Key:
Type in all cases: cell-based
[1] = system: breast MDA-MB-435; test: COMPARE screening (NCI human cancer cell line screen), cytotoxicity GI50
[2] = system: all human cancer cell lines successfully tested; test: NCI screen mean graph midpoint (MGM) for growth inhibition
Description: COMPARE screening. The compounds described herein were examined for antiproliferative activity against the human cancer cell lines in the National Cancer Institute screen (COMPARE screening), in which the activity of each compound was evaluated with approximately 55 different cancer cell lines of diverse tumor origins. […] Therefore, the MGM value represents an overall assessment of toxicity of the compound across numerous cell lines.
(§1) Selected compounds were tested for antiproliferative activity in the National Cancer Institute's developmental therapeutics assay 60 cell line screen (NCI60). The cells were incubated with the tested compounds at 100, 10, 1, 0.1, and 0.01 μM concentrations for 48 h before treatment with sulforhodamine B dye. Optical densities were recorded, and their ratios relative to that of the control were plotted as percentage growth against the log 10 of the tested compound concentrations.
The cytotoxicities of the compounds to cultured cancer cells were measured in the National Cancer Institute's 60 cell line assay (a.k.a. NCI-60).

[3] = system: renal SN12C; test: COMPARE screening (NCI human cancer cell line screen), cytotoxicity GI50
Description: as §1

[4] = system: lung HOP-62; test: as above
Description: as §1

[5] = system: ovarian OVCAR-3; test: as above
Description: as §1

[6] = system: melanoma UACC-62; test: as above
Description: as §1

[7] = system: prostate DU-145; test: as above
Description: as §1

[8] = system: CNS SF-539; test: as above
Description: as §1

[9] = system: colon HCT-116; test: as above
Description: as §1

[10] = Table 1, average GI50 of all cell lines tested (approximately 55), test range 10^−8 to 10^−4 molar
[11] = Homo sapiens, MDA-MB-435, read-out: cytotoxicity (GI50) breast MDA-MB-435
[12] = Homo sapiens, SN12C, read-out: cytotoxicity (GI50) renal SN12C
[13] = Homo sapiens, HOP-62, read-out: cytotoxicity (GI50) lung HOP-62
[14] = Homo sapiens, OVCAR-3, read-out: cytotoxicity (GI50) ovarian OVCAR-3
[15] = Homo sapiens, UACC-62, read-out: cytotoxicity (GI50) melanoma UACC-62
[16] = Homo sapiens, DU-145, read-out: cytotoxicity (GI50) prostate DU-145
[17] = Homo sapiens, CNSSF-539, read-out: cytotoxicity (GI50) CNS SF-539
[18] = all human cancer cell lines successfully tested

Row | Compound | GI50 [1] [µM] | MGM (mean graph midpoint for growth inhibition) [2, 10] [µM] | GI50 [3] [nM] | GI50 [4] [µM] | GI50 [5] [µM] | GI50 [6] [nM] | GI50 [7] [µM] | GI50 [8] [µM] | GI50 [9] [µM] | MGM (mean GI50 across cell lines) [2, 10] [nM] | also measured
1 | CC(C)(C)OC(=O)NCCCCCCCCCCCn1c2c(c3ccccc3c1=O)C(=O)c1ccccc1-2 [Compound 5aj, 6-(11′-tert-BOC-Anminoundecyl)-5,6-dihydro-5,11-dioxo-11H-indeno[1,2-c]isoquinoline] | > 100 | 42.6 ± 5.35 | > 100000 | 20.9 | 70.8 | 24000 | 91.2 | 29.5 | 35.5 |  | 
2 | O=C1c2ccccc2-c2oc(=O)c3cc([N+](=O)[O-])ccc3c21 [Compound 4c, 3-nitrobenz[d]indeno[1,2-b]pyran-5,11-dione] |  |  |  |  |  |  |  |  |  | 64600 | GI50 [1, 11]: > 100 µM; GI50 [3, 12]: > 100000 nM; GI50 [4, 13]: 18.2 µM; GI50 [5, 14]: > 100 µM; GI50 [6, 15]: 25100 nM; GI50 [7, 16]: > 100 µM; GI50 [8, 17]: > 100 µM; GI50 ([9]; Homo sapiens, HCT-116, read-out: cytotoxicity (GI50) colon HCT-116): 47.9 µM
3 | COc1cc2c3c(n(CCCNCCCNCCCn4c5c(c6ccccc6c4=O)C(=O)c4ccccc4-5)c(=O)c2cc1OC)-c1cc2c(cc1C3=O)OCO2.O=C(O)C(F)(F)F.O=C(O)C(F)(F)F [Compound 17a, 1,3-{6-(3-Amino-1-propyl)-5,6-dihydro-2,3-dimethoxy-8,9-methylenedioxy-5,1-dioxo-11H-indeno[1,2-c]isoquinoline}-{5′,6′-Dihydro-6′-(3′-amino-1′-propyl)-5′,11′-dioxo-11′H-indeno[1,2-c]isoquinoline}propane Bis(trifluoroacetate)] |  |  |  |  |  |  |  |  |  |  | GI50 ([1]; breast MDA-MB-435, concentration corresponding to 50% growth inhibition, read-out: cytotoxicity (GI50 in μM) breast MDA-MB-435): 0.155 µM; MGM (mean graph midpoint for growth inhibition) [2, 18]: 0.046 ± 0.010 µM; GI50 ([4]; lung HOP-62, concentration corresponding to 50% growth inhibition, read-out: cytotoxicity (GI50 in μM) lung HOP-62): 0.191 µM; GI50 ([5]; ovarian OVCAR-3, concentration corresponding to 50% growth inhibition, read-out: cytotoxicity (GI50 in μM) ovarian OVCAR-3): < 0.01 µM; GI50 ([7]; prostate DU-145, concentration corresponding to 50% growth inhibition, read-out: cytotoxicity (GI50 in μM) prostate DU-145): 0.01 µM; GI50 ([8]; CNS SF-539, concentration corresponding to 50% growth inhibition, read-out: cytotoxicity (GI50 in μM) CNS SF-539): < 0.01 µM; GI50 ([9]; colon HCT-116, concentration corresponding to 50% growth inhibition, read-out: cytotoxicity (GI50 in μM) colon HCT-116): 0.022 µM
4 | CC(C)(C)OC(=O)NCCCCCCCCn1c2c(c3ccccc3c1=O)C(=O)c1ccccc1-2 [Compound 5ag, 6-(8′-tert-BOC-Aminooctyl)-5,6-dihydro-5,11-dioxo-11H-indeno[1,2-c]isoquinoline] | > 50.1 |  | > 50100 | 10.7 |  | 15500 | > 50.1 | 8.71 | 25.7 | 19900 | 
5 | O=C1c2ccccc2-c2c1c1ccc([N+](=O)[O-])cc1c(=O)n2CCCN1CCOCC1 [Compound 5bi] | 1.23 | 0.632 ± 0.029 | 309 | 0.021 |  | 380 | 0.085 | 0.095 | 0.038 |  | 
6 | COc1ccc2c(c1)C(=O)c1c-2n(CCCN)c(=O)c2ccccc12.Cl [Compound 5bg] | 0.059 | 0.048 ± 0.024 | < 10 | < 0.01 | 0.028 |  | 0.014 | 0.038 | < 0.01 |  | 
7 | Bis-1,2-{(5,6-dihydro-5,11-diketo-11H-indeno[1,2-c]isoquinoline)-6-ethylamino-ethylamino}ethane Tetra(trifluoroacetate) [Compound 14j] | 0.126 |  |  | 0.977 | 0.032 |  | 0.085 | 0.012 | 0.2 |  | MGM (mean graph midpoint for growth inhibition) [2, 18]: 0.262 ± 0.100 µM
8 | O=C1c2ccccc2-c2c1c1ccccc1c(=O)n2Cc1ccccn1 [Compound 5aw, 5,6-Dihydro-5,11-dioxo-6-(2-pyridylmethyl)-11H-indeno[1,2-c]isoquinoline] |  |  |  |  |  |  |  |  |  | 15100 | GI50 [1, 11]: 3.09 µM; GI50 [3, 12]: 28200 nM; GI50 [4, 13]: 11.2 µM; GI50 [5, 14]: 13.8 µM; GI50 [6, 15]: 10700 nM; GI50 [7, 16]: 13.5 µM; GI50 [8, 17]: 12.3 µM
9 | COc1cc2c3c(n(CCCn4ccnc4)c(=O)c2cc1OC)-c1cc2c(cc1C3=O)OCO2.Cl [Compound 5l, Hydrochloride] | 0.02 |  | < 10 | < 0.01 |  | < 10 | < 0.01 | 0.037 | < 0.01 |  | GI50 ([5]; Table 1, concentration corresponding to 50% growth inhibition, read-out: cytotoxicity (GI50) ovarian OVCAR-3): 0.085 µM
10 | COc1ccc2c(c1)C(=O)c1c-2n(CCCNCCO)c(=O)c2cc([N+](=O)[O-])ccc12.Cl [Compound 5bm] | < 0.01 |  | 12 | < 0.01 | < 0.01 | < 10 | < 0.03 | < 0.01 |  | 16 | 
